Test results from US7135466B2 (Kirin Beer Kabushiki Kaisha, priority 1999, dated 2006).
pIC50: −log10 of the molar value.

Experiments:
c-kit = molecular target: T1, c-kit (Homo sapiens, UniProt P10721); assay: Inhibitory activity against c-kit autophosphorylation (MO7e cells, h-SCF); assay type: cell-based; conditions: for pIC50: MO7e cells, h-SCF 50 ng/ml, read-out: c-kit IC50
T1 construct: MO7e (human megakaryocytic leukemia cell line) which had been arrested for 20 hr; endogenous in cells; host or cells: MO7e human megakaryocytic leukemia cell line
Procedure, shortened: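 Phospho-c-kit ELISA: plate-bound PY-20 anti-phosphotyrosine captures lysate, anti-c-kit plus peroxidase-labelled secondary antibody detect, read at 450 nm. Lysates come from 20 hr-arrested MO7e cells given compound for 1 hr before a 5 min 50 ng/ml h-SCF stimulus.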

PDGF-Ra = molecular target: T2, PDGF-Ra (Homo sapiens, UniProt P16234); assay: Inhibitory activity against PDGF-Ra phosphorylation by PDGF-AA stimulation using G292; assay type: cell-based; conditions: for inhibition at 0.1 µM: G292, figure in parentheses in >100( ), at 100 nM, read-out: PDGF (E) inhibition (%) at 100 nM; for pIC50: Pharmacological Test Example 1, > means inhibition at indicated concentration not more than 50%, < and << not less than 50%, read-out: PDGF (E) IC50
T2 construct: host or cells: G-292 human osteosarcoma cells
Procedure, shortened: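 Phosphorylated PDGF-Ra was measured colorimetrically (450 nm) after tyrosine-phosphorylated proteins from G-292 lysates were bound to PY-20-coated wells and detected with anti-PDGF-Ra antibody. Compound preincubation lasted 1 hr, followed by 50 ng/ml PDGF-AA for 5 min.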

T2 sequence (P16234 24-1089): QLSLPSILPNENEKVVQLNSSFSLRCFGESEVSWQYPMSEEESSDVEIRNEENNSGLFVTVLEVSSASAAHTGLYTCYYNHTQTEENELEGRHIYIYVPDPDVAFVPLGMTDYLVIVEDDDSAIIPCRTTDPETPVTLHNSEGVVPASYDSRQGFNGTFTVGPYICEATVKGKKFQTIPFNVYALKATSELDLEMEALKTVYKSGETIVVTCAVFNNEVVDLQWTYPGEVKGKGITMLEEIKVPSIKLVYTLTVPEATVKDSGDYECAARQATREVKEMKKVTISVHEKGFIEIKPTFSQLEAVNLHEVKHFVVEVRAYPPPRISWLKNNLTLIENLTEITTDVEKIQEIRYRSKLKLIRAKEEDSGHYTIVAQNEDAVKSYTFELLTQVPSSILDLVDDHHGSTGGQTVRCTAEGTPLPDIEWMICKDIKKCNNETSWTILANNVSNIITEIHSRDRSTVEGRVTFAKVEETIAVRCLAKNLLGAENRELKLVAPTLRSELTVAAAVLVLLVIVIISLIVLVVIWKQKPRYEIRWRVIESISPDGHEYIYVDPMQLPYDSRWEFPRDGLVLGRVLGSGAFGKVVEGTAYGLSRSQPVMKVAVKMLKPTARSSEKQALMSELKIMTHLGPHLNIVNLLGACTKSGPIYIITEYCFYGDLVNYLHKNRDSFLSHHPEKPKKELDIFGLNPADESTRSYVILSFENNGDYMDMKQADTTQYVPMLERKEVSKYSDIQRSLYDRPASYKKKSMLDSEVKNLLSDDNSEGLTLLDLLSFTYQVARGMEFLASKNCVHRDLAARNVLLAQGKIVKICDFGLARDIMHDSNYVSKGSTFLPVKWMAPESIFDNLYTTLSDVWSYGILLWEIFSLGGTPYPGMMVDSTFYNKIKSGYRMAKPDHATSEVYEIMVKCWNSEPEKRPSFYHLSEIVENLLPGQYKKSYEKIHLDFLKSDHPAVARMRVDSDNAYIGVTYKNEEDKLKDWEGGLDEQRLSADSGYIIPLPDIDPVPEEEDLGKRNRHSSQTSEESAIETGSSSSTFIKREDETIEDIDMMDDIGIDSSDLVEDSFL
T1 sequence (P10721 26-976): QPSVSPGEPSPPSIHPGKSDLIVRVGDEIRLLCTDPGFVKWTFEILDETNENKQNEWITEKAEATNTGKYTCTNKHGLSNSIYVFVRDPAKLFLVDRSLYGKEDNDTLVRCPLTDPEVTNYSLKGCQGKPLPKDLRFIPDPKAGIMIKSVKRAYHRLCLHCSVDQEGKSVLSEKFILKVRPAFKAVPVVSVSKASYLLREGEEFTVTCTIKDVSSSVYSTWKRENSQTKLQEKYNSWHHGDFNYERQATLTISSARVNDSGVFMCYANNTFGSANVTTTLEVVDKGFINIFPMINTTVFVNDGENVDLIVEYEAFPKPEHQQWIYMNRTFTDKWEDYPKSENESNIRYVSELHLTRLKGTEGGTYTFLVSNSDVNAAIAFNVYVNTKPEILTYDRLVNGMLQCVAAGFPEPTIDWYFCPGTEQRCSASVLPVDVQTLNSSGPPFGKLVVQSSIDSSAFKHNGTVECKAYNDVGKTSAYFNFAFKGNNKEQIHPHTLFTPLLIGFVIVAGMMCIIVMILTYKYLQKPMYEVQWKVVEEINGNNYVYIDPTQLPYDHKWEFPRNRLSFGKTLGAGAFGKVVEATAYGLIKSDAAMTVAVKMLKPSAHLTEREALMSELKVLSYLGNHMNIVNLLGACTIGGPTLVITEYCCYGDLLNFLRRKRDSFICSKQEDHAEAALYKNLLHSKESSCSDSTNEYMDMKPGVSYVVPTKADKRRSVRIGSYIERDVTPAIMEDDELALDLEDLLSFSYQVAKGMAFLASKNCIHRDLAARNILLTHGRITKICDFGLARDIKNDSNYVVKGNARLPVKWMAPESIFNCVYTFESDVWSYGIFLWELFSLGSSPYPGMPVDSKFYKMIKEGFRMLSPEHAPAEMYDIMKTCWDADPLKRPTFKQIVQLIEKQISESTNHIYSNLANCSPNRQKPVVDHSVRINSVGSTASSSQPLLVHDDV

Row | SMILES | pIC50 (c-kit) | inhibition at 0.1 µM (PDGF-Ra) [%] | pIC50 (PDGF-Ra) | inhibition at 1 µM (c-kit; Mo7e, figure in parentheses in −( ), at 1000 nM) [%]
1 | COc1cc2nccc(Oc3cc(C)c(NC(=O)OCc4ccc(C)cc4)cc3C)c2cc1OC [Example 255, 4-Methylbenzyl N-{4-[(6,7-dimethoxy-4-quinolyl)oxy]-2,5-dimethylphenyl}carbamate] | 6.51 | 36 | < 7.00 | –
2 | CCCCCCOC(=O)Nc1ccc(Oc2ccnc3cc(OC)c(OC)cc23)cc1 [Example 256, Hexyl N-{4-[(6,7-dimethoxy-4-quinolyl)oxy]phenyl}carbamate] | 7.82 | – | > 8.52 | –
3 | CCCCc1ccc(OC(=O)Nc2ccc(Oc3ccnc4cc(OC)c(OC)cc34)cc2)cc1 [Example 257, 4-Butylphenyl N-{4-[(6,7-dimethoxy-4-quinolyl)oxy]phenyl}carbamate] | 7.66 | – | 8.22 | –
4 | CCCC(CC)OC(=O)Nc1ccc(Oc2ccnc3cc(OC)c(OC)cc23)cc1 (centres unmarked) [Example 258, 1-Ethylbutyl N-{4-[(6,7-dimethoxy-4-quinolyl)oxy]phenyl}carbamate] | 6.75 | – | 8.52 | –
5 | COc1cc2nccc(Oc3ccc(NC(=O)Oc4ccc(C(C)(C)C)cc4)cc3)c2cc1OC [Example 259, 4-(Tert-butyl)phenyl N-{4-[(6,7-dimethoxy-4-quinolyl)oxy]phenyl}carbamate] | 6.74 | – | 7.47 | –
6 | COc1cc2nccc(Oc3ccc(NC(=O)Oc4ccccc4OC)cc3)c2cc1OC [Example 260, 2-Methoxyphenyl N-{4-[(6,7-dimethoxy-4-quinolyl)oxy]phenyl}carbamate] | 6.74 | – | 8.22 | –
7 | CCCCCCOC(=O)Nc1ccc(Oc2ccnc3cc(OC)c(OC)cc23)c(C)c1C [Example 261, Hexyl N-{4-[(6,7-Dimethoxy-4-quinolyl)oxy]-2,3-dimethylphenyl}carbamate] | 7.36 | – | 8.40 | –
8 | CCCCCCOC(=O)Nc1cc(C)c(Oc2ccnc3cc(OC)c(OC)cc23)cc1C [Example 262, Hexyl N-{4-[(6,7-dimethoxy-4-quinolyl)oxy]-2,5-dimethylphenyl}carbamate] | 7.08 | – | 8.15 | –
9 | CCC(OC(=O)Nc1ccc(Oc2ccnc3cc(OC)c(OC)cc23)cc1)c1ccccc1 (centres unmarked) [Example 263, 1-Phenylpropyl N-{4-[(6,7-dimethoxy-4-quinolyl)oxy]phenyl}carbamate] | 6.48 | – | 8.00 | –
10 | CCC(OC(=O)Nc1cc(C)c(Oc2ccnc3cc(OC)c(OC)cc23)cc1C)c1ccccc1 (centres unmarked) [Example 264, 1-Phenylpropyl N-{4-[(6,7-dimethoxy-4-quinolyl)oxy]-2,5-dimethylphenyl}carbamate] | 6.31 | – | 7.38 | –
11 | CCC(OC(=O)Nc1ccc(Oc2ccnc3cc(OC)c(OC)cc23)c(C)c1C)c1ccccc1 (centres unmarked) [Example 265, 1-Phenylpropyl N-{4-[(6,7-dimethoxy-4-quinolyl)oxy]-2,3-dimethylphenyl}carbamate] | 6.91 | – | 7.46 | –
12 | COc1cc2nccc(Oc3ccc(NC(=O)Oc4c(C)cccc4C)cc3)c2cc1OC [Example 269, 2,6-Dimethylphenyl N-{4-[(6,7-dimethoxy-4-quinolyl)oxy]phenyl}carbamate] | – | – | 7.77 | 48
13 | COc1cc2nccc(Oc3cc(C)c(NC(=O)Oc4c(C)cccc4C)cc3C)c2cc1OC [Example 270, 2,6-Dimethylphenyl N-{4-[(6,7-dimethoxy-4-quinolyl)oxy]-2,5-dimethylphenyl}carbamate] | 6.33 | – | 7.19 | –
14 | COc1cc2nccc(Oc3ccc(NC(=O)Oc4c(C)cccc4C)c(C)c3C)c2cc1OC [Example 271, 2,6-Dimethylphenyl N-(4-[(6,7-dimethoxy-4-quinolyl)oxy]-2,3-dimethylphenyl}carbamate] | 6.89 | – | 7.66 | –
15 | CCCCc1ccc(OC(=O)Nc2cc(C)c(Oc3ccnc4cc(OC)c(OC)cc34)cc2C)cc1 [Example 272, 4-Butylphenyl N-{4-[(6,7-dimethoxy-4-quinolyl)oxy]-2,5-dimethylphenyl}carbamate] | 6.53 | – | 7.21 | –
16 | CCCCc1ccc(OC(=O)Nc2ccc(Oc3ccnc4cc(OC)c(OC)cc34)c(C)c2C)cc1 [Example 273, 4-Butylphenyl N-{4-[(6,7-dimethoxy-4-quinolyl)oxy]-2,3-dimethylphenyl}carbamate] | 6.97 | – | 7.64 | –
17 | COc1cc2nccc(Oc3cc(C)c(NC(=O)Oc4ccc(C(C)(C)C)cc4)cc3C)c2cc1OC [Example 274, 4-(Tert-butyl)phenyl N-{4-[(6,7-dimethoxy-4-quinolyl)oxy]-2,5-dimethylphenyl}carbamate] | 6.40 | – | 7.60 | –
18 | COc1cc2nccc(Oc3ccc(NC(=O)Oc4ccc(C(C)(C)C)cc4)c(C)c3C)c2cc1OC [Example 275, 4-(Tert-butyl)phenyl N-{4-[(6,7-dimethoxy-4-quinolyl)oxy]-2,3-dimethylphenyl}carbamate] | 6.99 | – | 7.80 | –
19 | CCCC(CC)OC(=O)Nc1cc(C)c(Oc2ccnc3cc(OC)c(OC)cc23)cc1C (centres unmarked) [Example 276, 1-Ethylbutyl N-{4-[(6,7-dimethoxy-4-quinolyl)oxy]-2,5-dimethylphenyl}carbamate] | 6.38 | – | 7.80 | –
20 | CCCC(CC)OC(=O)Nc1ccc(Oc2ccnc3cc(OC)c(OC)cc23)c(C)c1C (centres unmarked) [Example 277, 1-Ethylbutyl N-{4-[(6,7-dimethoxy-4-quinolyl)oxy]-2,3-dimethylphenyl}carbamate] | 7.28 | – | 8.00 | –
21 | COc1cc2nccc(Oc3cc(C)c(NC(=O)Oc4ccccc4OC)cc3C)c2cc1OC [Example 278, 2-Methoxyphenyl N-{4-[(6,7-dimethoxy-4-quinolyl)oxy]-2,5-dimethylphenyl}carbamate] | 6.54 | – | 7.28 | –
22 | COc1cc2nccc(Oc3ccc(NC(=O)Oc4ccccc4OC)c(C)c3C)c2cc1OC [Example 279, 2-Methoxyphenyl N-{4-[(6,7-dimethoxy-4-quinolyl)oxy]-2,3-dimethylphenyl}carbamate] | > 7.52 | – | > 8.00 | –
23 | COc1cc2nccc(Oc3ccc(NC(=O)Oc4c(OC)cccc4OC)cc3)c2cc1OC [Example 280, 2,6-Dimethoxyphenyl N-{4-[(6,7-dimethoxy-4-quinolyl)oxy]phenyl}carbamate] | 6.43 | – | > 8.00 | –
24 | COc1cc2nccc(Oc3cc(C)c(NC(=O)Oc4c(OC)cccc4OC)cc3C)c2cc1OC [Example 281, 2,6-Dimethoxyphenyl N-{4-[(6,7-dimethoxy-4-quinolyl)oxy]-2,5-dimethylphenyl}carbamate] | 6.57 | 49 | < 7.00 | –
25 | COc1cc2nccc(Oc3ccc(NC(=O)Oc4c(OC)cccc4OC)c(C)c3C)c2cc1OC [Example 282, 2,6-Dimethoxyphenyl N-{4-[(6,7-dimethoxy-4-quinolyl)oxy]-2,3-dimethylphenyl}carbamate] | 7.32 | – | 7.47 | –
26 | COc1cc2nccc(Oc3ccc(NC(=O)OCC4CCCCC4)cc3)c2cc1OC [Example 283, Cyclohexylmethyl N-{4-[(6,7-dimethoxy-4-quinolyl)oxy]phenyl}carbamate] | 6.92 | – | > 8.00 | –
27 | COc1cc2nccc(Oc3cc(C)c(NC(=O)OCC4CCCCC4)cc3C)c2cc1OC [Example 284, Cyclohexylmethyl N-{4-[(6,7-dimethoxy-4-quinolyl)oxy]-2,5-dimethylphenyl}carbamate] | 6.57 | – | > 8.00 | –
